How the values were obtained:
[1] = in propan-1-ol at 60° C.
Description: In addition to methanol, other lower aliphatic alcohols were investigated. The solubility of BOC-protected 2R,3S—N-isobutyl-N-(2-hydroxy-3-amino-4-phenylbutyl)-p-nitrobenzene-sulfonylamide in propan-1-ol, propan-2-ol or butan-1-ol is too low to offer an economically viable process. […] The solubility of BOC-protected 2R,3S—N-isobutyl-N-(2-hydroxy-3-amino-4-phenylbutyl)-p-nitrobenzene-sulfonylamide in ethanol is better than that in C3 and C4-alcohols, but is still lower than the solubility in methanol. […] Similarly, acetone and 2-pentanone yield small acicular crystals.

[2] = solvent mixtures comprising methanol and one or more of toluene or ethyl acetate, typically
Protocol: The upper and lower concentration values are therefore dependent on the solubility characteristics of the material and the solvent mixture of choice. […] Therefore, for a crystallisation regime starting at 60° C. and ending at 0° C., a saturated or partially saturated solution in methanol and toluene, ethyl acetate admixtures, the concentration of BOC-protected 2R,3S—N-isobutyl-N-(2-hydroxy-3-amino-4-phenylbutyl)-p-nitrobenzene-sulfonylamide is in the range from 0.3 to 24% w/w.

For `CC(C)CN(C[C@@H](O)[C@H](Cc1ccccc1)NC(=O)OC(C)(C)C)S(=O)(=O)c1ccc([N+](=O)[O-])cc1` [BOC-protected 2R,3S—N-isobutyl-N-(2-hydroxy-3-amino-4-phenylbutyl)-p-nitrobenzene-sulfonylamide], the solubility [1] was “less than 3 % w/w”, the maximum solubility achievable ([2]; 60° C.) was 24 % w/w and the lower solubility value ([2]; end-point temperature of 0° C.) was 0.3 % w/w.

Reference: patent publication US20080200724A1, “Process and Compound” (NPIL Pharmaceuticals (UK) Ltd, priority 2005, published 2008)
